Measured values from the NIST ThermoML archive (doi:10.1021/acs.jced.8b00333).
± gives the expanded uncertainty stated by the source.

Key:
[1] = Crystal; DTA
[2] = Molar enthalpy of transition or fusion; details: Crystal; DSC

With `CCOC(=O)[C@H](CCc1ccccc1)N[C@@H](C)C(=O)O` [((S)-1-ethoxy-1-oxo-4-phenylbutan-2-yl)-L-alanine] the Normal melting temperature [1] was 153.36 ± 1.1 °C and the “Molar enthalpy of transition or fusion” value [2] was 13.9 ± 0.335 kcal/mol.
